Measured values reported in ChEMBL document CHEMBL1961794, “Regulation of circadian behaviour and metabolism by synthetic REV-ERB agonists” (Nature, 2012).

Molecular target: T1, Nuclear receptor subfamily 1 group D member 1 (Homo sapiens, UniProt P20393)
T1 sequence (P20393 whole entry): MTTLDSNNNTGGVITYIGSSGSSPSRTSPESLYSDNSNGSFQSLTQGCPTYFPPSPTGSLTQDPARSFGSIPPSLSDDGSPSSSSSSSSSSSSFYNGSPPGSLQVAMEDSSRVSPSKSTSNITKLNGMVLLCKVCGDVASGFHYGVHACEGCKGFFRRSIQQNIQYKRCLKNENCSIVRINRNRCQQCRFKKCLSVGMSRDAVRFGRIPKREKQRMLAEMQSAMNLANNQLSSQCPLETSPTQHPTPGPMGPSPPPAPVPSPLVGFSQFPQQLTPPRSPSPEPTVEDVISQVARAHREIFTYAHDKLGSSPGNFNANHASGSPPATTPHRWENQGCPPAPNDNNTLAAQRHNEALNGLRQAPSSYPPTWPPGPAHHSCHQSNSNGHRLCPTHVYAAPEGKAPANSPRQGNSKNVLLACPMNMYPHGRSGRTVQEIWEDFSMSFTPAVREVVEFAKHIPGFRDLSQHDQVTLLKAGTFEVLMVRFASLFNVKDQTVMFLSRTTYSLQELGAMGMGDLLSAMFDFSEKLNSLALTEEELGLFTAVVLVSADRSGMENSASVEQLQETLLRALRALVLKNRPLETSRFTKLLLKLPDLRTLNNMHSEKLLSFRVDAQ
Test: Increased REV-ERB-alpha LBD dependent repressor activity in HEK293 cell reporter assay
Type: cell-based
Conditions: hek293; call rule not given here

CC(C)(C)OC(=O)CN(Cc1ccc(Cl)cc1)Cc1ccc([N+](=O)[O-])s1 [GSK-4112]
IC50: Not Active
